Results as given in paper PMC9827864, “In Situ Inhibitor Synthesis and Screening by Fluorescence Polarization: An Efficient Approach for Accelerating Drug Discovery” (Angewandte Chemie (International Ed. in English), 2022).

Legend:
[1] = test system: ICR mice; test: Acute oral toxicity assay; format: in vivo; conditions: 400 mg kg−1 oral, once
[2] = Acute oral toxicity assay; format: in vivo; conditions: both sexes, mouse, in vivo, 400 mg·kg-1; ICR mice, single oral administration
[3] = Metabolic stability in mouse liver microsomes; format: in vitro ADME
[4] = molecular target: T1, human prolyl hydroxylase 2 (PHD2) (Homo sapiens, UniProt Q9GZT9); test: Fluorescence polarization (FP) competition assay of PHD2; conditions: purified compounds, 20 nM PHD2 (181-426), 30 nM probe, Cheng-Prusoff, mean±SD, read-out: Ki, binding affinity for PHD2
T1 construct: (181-426); made in house
Description: 2.1 Fluorescence polarization (FP) competition assay of PHD2 [4]
FP assays were performed using a SPARK Multi-Mode Microplate Reader (Tecan) with excitation and emission filters appropriate for the fluorophore used in the binding experiment. Fluorescence polarization experiments were performed in 384-well, flat bottom, black assay plates (#3575, Corning) in a final volume of 60 µL. The final assay buffer contained: 30 nM fluorescence Probe, 20 nM PHD2 (181-426), 10 mM HEPES, pH 7.4, 150 mM NaCl, 0.05% Tween-20, and at the 1% DMSO (except for DMSO tolerance experiments, in which different DMSO concentrations were used as indicated). All plates measured in fluorescence polarization assays were incubated for a minimum of 30 min at RT. Fluorescence polarization was measured from the top of the well with a Tecan SPARK plate reader with polarized filters and optical modules for fluorescein (λex = 485 nm ± 25 nm, λem = 535 nm ± 25 nm). The standard error of the mean (SEM) values, were calculated by dividing the sample standard deviation by the square root of the sample size and are recorded as ± values for IC 50. Dose-dependent experiments were performed in th e same manner using at least 10 concentrations of the test compounds in 3 -fold serial dilutions from 100 µM. For each assay, negative controls (equivalent to 0% displacement) contained the fluorescent ligand, PHD2 (181 -426), and 20 µL FP buffer; blank cont rols contained only the fluorescent ligand and 40 µL buffer.
The reaction mixtures were incubated at RT for 60 min, then total fluorescence and fluorescence polarization measurements wer e taken. The percentage inhibition was calculated using Equation 1, where mPfree is the signal for the free probe (blank control) and mPbound is the signal for the bound probe (negative control).
IC50s were determined for duplicate measurements by non-linear least-squares analysis using GraphPad Prism 8.0.
The Ki values of the inhibitors were calculated using the Cheng-Prusoff equation.[5] Cheng-Prusoff equation: Ki = IC50 / (1 + [L]/Kd)
The Kd value was determined using a constant concentration of probe and titrating with PHD2 protein at increasing concentrations. [L] represents the concentration of the […] used in the FP assay. […]

[5] = Metabolic stability in human liver microsomes; format: in vitro ADME
[6] = test system: EPO gene expression in Hep3B cells; test: RT-qPCR assay of EPO mRNA; format: cell-based, human; conditions: reference gene HPRT
[7] = test system: reticulocytes in C57BL/6J mice; test: In vivo reticulocytes increased assay; parameters: species or system mouse
Description: (§1) A structure of PHD2 in complex with Fe and a 2OG competing inhibitor (PDB ID: 4KBZ) was obtained from PDB website. The structure files of protein and compounds for docking were prepared using the Discovery Studio (DS) 2020 software. A water molecule HOH624, conserved in the active binding site of PHD2, was retained during the docking. Residues of PHD2 around the native ligand (radius = 10 Å) were defined as the binding sites for docking. Subsequently, the ligand was removed; the Fe (II) was retained during the docking. Compounds were docked into the binding sites using GOLD 5.1. Docking procedures were performed using the default setting with 100 genetic algorithm (GA) runs of ligands. […]
(§2) 17 was preincubated with microsomes from different species (0.5 mg/mL) at 1 μM for 5 min at 37 °C in 100 mM PBS buffer (pH 7.4). […] The samples were centrifuged at 5000 rpm f or 10 min; the supernatants were then analyzed by HPLC. […]
(§3) Representative compounds and Roxadustat were formulated in normal saline solution. […] Subsequently, these samples were analyzed for reticulocytes in the center for new drug safety evaluation and research of China Pharmaceutical University (ADVIA 2120 hematology system). […]
(§4) Plasma EPO was evaluated using the erythropoietin quantikine ELISA kit for mice (MEP00B). […]
(§5) in normal saline solution. […] Plasma was collected by centrifugation at 3000 rpm, these plasmas were detected by E PO […]

[8] = Plasma stability (rat); format: in vitro ADME; conditions: 100 μM
Description: as §1, §2, §3, §4, §5

[9] = test system: plasma EPO in C57BL/6J mice; test: In vivo EPO increased assay (plasma EPO ELISA); parameters: species or system mouse; conditions: C57BL/6J mice, 10, 20 and 50 mg kg−1 po, 4 hours
Description: as §1, §2, §3, §4, §5

[10] = pH 7.4, read-out: t1/2 in liver microsomes

T1 sequence (Q9GZT9 181-426): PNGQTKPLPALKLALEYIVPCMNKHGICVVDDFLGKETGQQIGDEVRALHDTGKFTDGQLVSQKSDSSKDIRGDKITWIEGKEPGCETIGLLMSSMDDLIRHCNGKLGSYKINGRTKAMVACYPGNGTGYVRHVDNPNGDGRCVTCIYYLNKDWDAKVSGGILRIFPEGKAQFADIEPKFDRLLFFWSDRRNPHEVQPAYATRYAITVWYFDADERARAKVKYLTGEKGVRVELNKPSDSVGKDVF

O=C(N/N=C/c1cccc(O)c1Cl)c1cnc(-c2cccnn2)[nH]c1=O [compound 17]
acute oral toxicity findings (body weight, organ/body weight ratio, ALT, AST, BUN, CRE) [1]: no obvious abnormality | LD50 [2]: > 400 mg/kg | compound present (remaining) in liver microsomes ([3]; after 50 min, 1 μM, 0.5 mg/mL): > 80% | half-life at 1 μM [3, 10]: > 1.67 h | Ki [4]: 27 ± 2 nM | compound present (remaining) in liver microsomes ([5]; after 50 min, 1 μM, 0.5 mg/mL): > 80% | half-life at 1 μM [5, 10]: > 1.67 h | EPO mRNA expression by RT-qPCR [6]: increases EPO mRNA in a concentration‐dependent manner with comparable efficiency to Roxadustat | reticulocyte induction ([7]; C57BL/6J male mice, 20 mg kg−1 po, three administrations, 72 h): superior with respect to inducing reticulocytes compared to the other tested ISISS compounds | changes in reticulocytes, multiple doses ([7]; C57BL/6J mice, 5, 10 and 20 mg kg−1 po): dose‐dependent increase in reticulocytes | plasma stability [8]: stable in rat plasma | plasma EPO response [9]: dose‐dependent induction of EPO, similarly to Roxadustat
